Values quoted from earlier work as cited in publication PMC3172588 (Organic & Biomolecular Chemistry, 2010).
Each block holds one compound with its values, some of them ahead of it.

Experiments:
[1] = tested on: sea urchin cADPR receptor (sea urchin egg homogenate, SUH)
[2] = tested on: T cell-cADPR receptor (permeabilised Jurkat T-cells, JTC); settings: class in words; ref [8],[17],[23],[36]

times more potent than cADPR in SUH ([1]; agonist, ref [20]): 70 times
Compound: 3-deaza cADPR

EC50 ([1]; read-out: Activity in SUH: agonist EC50, Table 3, compounds synthesized by Shuto's group, ref [15],[38],[51],[52]): 19 µM
Compound: 8-Cl-cADPcR [8-Cl-cADPcR (5)]

Compound: O=c1c2nc(Br)n3c2ncn1[C@@H]1O[C@H](COP(=O)(O)OP(=O)(O)OC[C@H]2O[C@@H]3[C@H](O)[C@@H]2O)[C@@H](O)[C@H]1O [8-Bromo cIDPR]
Activity in T cells / JTC (running text, literature) [2]: agonist activity

Activity in SUH (running text, literature) ([1]; class in words, ref [8],[13],[17],[23],[32],[36],[38]): antagonists
Compound: [N-]=[N+]=Nc1nc2c(=N)n3cnc2n1C1OC(COP(=O)(O)OP(=O)(O)OCC2OC3C(O)C2O)C(O)C1O (stereo not shown) [8-azido-cADPR]
